Data as given in US20070142478A1, “COMBINATION ANTIMICROBIAL COMPOSITION AND METHOD OF USE” (priority 2005, published 2007).
Entries after “also recorded” stand apart in the source; their conditions may differ.

Experiments:
Aspergillus = conditions: 0.02%; cited from earlier work
Cytomegalovirus = experiment: Viral Suspension Assay, Cytomegalovirus; format: cell-based; conditions: 30 ppm and 99 ppm
Procedure: (§1) The Viral Suspension Assay was used to evaluate the antiviral properties of Alexidine against Adenovirus Type-4, Adenovirus Type-8 and Adenovirus Type-19 and Cytomegalovirus when exposed in suspension for 1, 2, 5, and 10 minutes. The presence of virus (infectivity) was determined by monitoring the virus specific cytopathic effect (CPE) on an appropriate indicator cell line, rabbit kidney. Results are reported as Percent (%) Reduction in virus titer as compared to the corresponding virus control titer (Table 1). The titer of the virus controls were 7.5 log10 following the one minute exposure time; 7.0 log10 following the two minute exposure time; and 7.75 log10 following both the five and ten minute exposure times.

[1] = tested on: Herpes simplex virus type 1; experiment: Viral Suspension Assay, HSV-1; format: cell-based; conditions: 30 ppm and 99 ppm
Procedure: as §1, with “Herpes simplex virus type 1” for “Adenovirus Type-4, Adenovirus Type-8 and Adenovirus Type-19 and Cytomegalovirus”

Adenovirus Type-8 = experiment: Viral Suspension Assay, Adenovirus Type-8; format: cell-based
Procedure: as §1

Adenovirus Type-4 = experiment: Viral Suspension Assay, Adenovirus Type-4; format: cell-based
Procedure: as §1

Adenovirus Type-19 = experiment: Viral Suspension Assay, Adenovirus Type-19; format: cell-based
Procedure: as §1

Molecule | Effectiveness in experimental Aspergillus keratitis (in words) (Aspergillus) | Effectiveness against Cytomegalovirus (in words) (Cytomegalovirus) | Effectiveness against HSV-1 (in words) [1] | Effectiveness against Adenovirus Type-8 (in words) (Adenovirus Type-8; 30 ppm and 99 ppm) | Percent Reduction (%) (Adenovirus Type-8; Alexidine 30 ppm, 10 minutes) | Percent Reduction (%) (Adenovirus Type-8; Alexidine 99 ppm, 5 minutes) | Percent Reduction (%) (Adenovirus Type-8; Alexidine 99 ppm, 10 minutes) | Effectiveness against Adenovirus Type-4 (in words) (Adenovirus Type-4; 30 ppm and 99 ppm) | Percent Reduction (%) (Adenovirus Type-4; Alexidine 30 ppm, 1 minute) | Percent Reduction (%) (Adenovirus Type-4; Alexidine 30 ppm, 10 minutes) | Percent Reduction (%) (Adenovirus Type-4; Alexidine 99 ppm, 1 minute) | Percent Reduction (%) (Adenovirus Type-4; Alexidine 99 ppm, 5 minutes) | Percent Reduction (%) (Adenovirus Type-4; Alexidine 99 ppm, 10 minutes) | Percent Reduction (%) (Adenovirus Type-19; Alexidine 30 ppm and 99 ppm, 1, 2, 5 and 10 minutes) | Effectiveness against Adenovirus Type-19 (in words) (Adenovirus Type-19; particular strain tested)
polyhexamethylene biguanide | moderately effective |  |  |  |  |  |  |  |  |  |  |  |  |  | 
CCCCC(CC)CNC(=N)NC(=N)NCCCCCCNC(=N)NC(=N)NCC(CC)CCCC (stereo not drawn) [Alexidine, 1,1′-hexamethylene-bis[5-(2-ethylhexyl)biguanide]] |  | somewhat effective | effective agents; also recorded: potent antimicrobial agent | somewhat effective | 90.0 | 90.0 | 90.0 | somewhat effective | 43.8 | 68.4 | 68.4 | 43.8 | 68.4 | No reduction | did not appear to be effective
